From patent US20160281125A1, “ANTIMICROBIAL COMPOUND SUSCEPTIBILITY TEST” (priority 2013, published 2016)

Assays:
[1] = tested on: E. aero 13048; assay: Selective lysis test, OD600 turbidity (Example 1); type: cell-based, Enterobacter aerogenes
Experimental: (§1) An isolated colony from an overnight Tryptocase Soy Agar (TSA) plate of each bacterial strain was suspended in 1 ml Tryptocasc Soy Broth (TSB) in a 5 ml BD polystyrene round bottom tube. TSB cultures were incubated shaking at 37° C. overnight. Ten of the overnight culture was inoculated into lml TSB and incubated shaking at 37° C. for three hours. Two […] aliquots of each log-phase culture were then transferred to two 2 ml Eppendorf microcentrifuge tubes. One tube contained 5000 of Normal Saline (BD); the second tube contained 5000 Normal Saline with meropenem at 10 μg/ml (final concentration of meropenem of 6.67 10 μg/ml). Tubes were inverted and then incubated at 37° C. stagnant for thirty minutes. Then […] of lysis buffer (0.5% SDS in PSB) (final concentration of SDS of 0.125%) was added to each tube and the tubes were vortexed for 5 seconds. Post incubation, all tubes were spun at 10000 G for 5 minutes. Supernatant was decanted and the pellet resuspended in Normal Saline. Tubes were vortexed again. OD600 was measured using Eppendorf uvettes in a spectrophotometer. The delta between the OD600 of the normal saline control and the OD600 for the test sample exposed to meropenem in normal saline was used to determine susceptibility of the bacterial strain to meropenem.

[2] = tested on: K. pneumo BAA2146 (NDM+); assay: Selective lysis test, flow cytometry cell count (Example 5); type: cell-based, K. pneumoniae; set-up: key to R or S: R: meropenem resistant strain; S: meropenem sensitive strain
Experimental: (§2) An isolated colony from overnight Tryptocase Soy Agar (TSA) plate for each bacteria was suspended in 1 ml Tryptocase Soy Broth (TSB) in a 5 ml BD polystyrene round bottom tube. TSB cultures were incubated at 37° C. overnight. Ten μl of overnight culture was inoculated into 1 ml TSB and incubated shaking at 37° C. for three hours. Two 250 μl aliquots of each log-phase culture were transferred to two 2 ml Eppendorf microcentrifuge tubes. One tube contained 500 μl of Normal Saline (BD); the second tube contained 504.1 Normal Saline with meropenem at 10 μg/ml. Tubes were inverted then incubated at 37° C. stagnant for thirty minutes. An aliquot was removed at this point for flow cytometry measurement of the total cell count. Then 250 μl lysis buffer (0.5% SDS in PSB) was added to each tube and each tube was vortexed for 5 seconds. Post incubation, all tubes were spun at 10000 G for 5 minutes. Supernatant was decanted and the pellet resuspended in Normal Saline. Tubes were vortexed.
(§3) Re-suspended pellets were then diluted 20 times into a solution of 10 mM Tris-HCl pH=7.6, containing 2.5 μM SYTO 9 (stain permeable to all bacterial cells). Stained bacterial cells were analyzed by flow cytometry using the Guava EasyCyte™ Mini System equipped with a 488 nm diode laser, capillary flow cell, forward and side scatter detectors and fluorescence (green, yellow and red) detectors. Flow cytometry dot plots were acquired with CytoSoft (Guava ExpressPlus) software and cell counts were obtained.

[3] = tested on: K. pneumo 13882 (NDM−); assay: as above; type: cell-based, K. pneumoniae; set-up: key to R or S: R: meropenem resistant strain; S: meropenem sensitive strain
Experimental: as §2, §3

[4] = tested on: strains previously considered susceptible to meropenem; assay: Selective lysis OD600 test, summary over the strains of Table 1; type: cell-based, Enterobacteriaceae; settings: 13 of 14 strains of Table 1
Experimental: as §1
Species abbreviations: sp. […]

[5] = tested on: K. pneumo BAA-2146 (NDM1); assay: Selective lysis test, OD600, meropenem and cefotaxime (Example 2); type: cell-based, K. pneumoniae
Experimental: (§4) In this experiment the following strains were tested: strain K. pneumoniae 13882 (previously considered meropenem sensitive and cefotaxime sensitive); E. coli BAA-197 (ESBL) (which expresses an extended-spectrum (beta)-lactamase enzyme and was previously considered meropenem sensitive and cefotaxime resistant); K. pneumoniae BAA-1705 (KPC) (which expresses a carbapenemase enzyme and was previously considered meropenem resistant and cefotaxime resistant); and K. pneumoniae BAA-2146 (NDM1) (which expresses the metallo-beta-lactamase-1 enzyme and was previously considered meropenem resistant and cefotaxime resistant).
(§5) An isolated colony from an overnight Tryptocase Soy Agar (TSA) plate of each bacteria was suspended in 1 ml Tryptocase Soy Broth (TSB) in a 5 ml BD polystyrene round bottom tube. TSB cultures were incubated at 37° C. for 1.5 hours shaking. Three 250 μl aliquots of each stationary-phase culture were then transferred to three 2 ml Eppendorf microcentrifuge tubes. One tube contained 500 μl of Normal Saline (BD); the second tube contained 500 μl Normal Saline with meropenem at 10 μg/ml; and the third tube contained 500 μl Normal Saline with cefotaxime (abbreviated […]) at 10 μg/ml. Tubes were inverted then incubated at 37° C. stagnant for thirty minutes. Then […] of lysis buffer (0.5% SDS in PSB) was added to each tube and each tube was vortexed for 5 seconds. Post incubation, all tubes were spun at 10000 G for 5 minutes. Supernatant was decanted and the pellet resuspended in Normal Saline. Tubes were vortexed. OD600 was measured using Eppendorf uvettes in a spectrophotometer. The delta between the control and the meropenem normal saline, or the control and the cefotaxime normal saline was used to determine susceptibility.

[6] = tested on: K. pneumo 13882; assay: as above; type: cell-based, K. pneumoniae
Experimental: as §4, §5

[7] = tested on: K. pneumo BAA-1705 (KPC); assay: as above; type: cell-based, K. pneumoniae
Experimental: as §4, §5

[8] = tested on: E. coli BAA-197 (ESBL); assay: as above; type: cell-based
Experimental: as §4, §5

[9] = K. pneumo BAA2146 (NDM+), 10 μg/ml Meropenem, Post-lysis + spin
[10] = K. pneumo 13882 (NDM−), 10 μg/ml Meropenem, Post-lysis + spin

In the case of `C[C@@H](O)[C@H]1C(=O)N2C(C(=O)O)=C(S[C@@H]3CN[C@H](C(=O)N(C)C)C3)[C@H](C)[C@H]12` [meropenem], the “R or S” value [1] is reported as “S (a percentage change of greater than about 85% indicates a strain is susceptible)”, the “% Change” value ([1]; OD600 vs control without meropenem) is reported as 97% and the “Mero OD600” value ([1]; meropenem 10 μg/ml, 30 min, SDS lysis buffer + vortex) is reported as 0.077. For the same molecule, the “Cell Number/ml” value [2, 9] was 2.83e+06 mL⁻¹, the “R or S” value [2, 9] was “R” and the “Cell Number/ml” value ([2]; K. pneumo BAA2146 (NDM+), 10 μg/ml Meropenem, Pre-lysis) was 3.04e+06 mL⁻¹. The “reduction in cell number after lysis and centrifugation” value ([2]; K. pneumoniae BAA2146 (NDM+), meropenem treated sample, post-lysis vs pre-lysis) was 7%, the “Cell Number/ml” value [3, 10] was 241000 mL⁻¹ and the “R or S” value [3, 10] was “S”. The “Cell Number/ml” value ([3]; K. pneumo 13882 (NDM−), 10 μg/ml Meropenem, Pre-lysis) was 2.38e+06 mL⁻¹, the “reduction in cell number after lysis and centrifugation” value ([3]; K. pneumoniae 13882 (NDM−), meropenem treated sample, post-lysis vs pre-lysis) was 90% and the “decrease of OD600 turbidity vs negative control” value [4] was “at least 88%”. For the same molecule, the “% diff” value ([5]; K. pneumo BAA-2146 (NDM1), OD600 vs control) was −0.3%, the OD600 ([5]; K. pneumo BAA-2146 (NDM1), antibiotic 10 μg/ml, 30 min, SDS lysis buffer + vortex, 1.5 h culture) was 0.301 and the “assay score (sensitive or resistant)” value ([5]; K. pneumoniae BAA-2146 (NDM1)) was “resistant”. The “% diff” value ([6]; K. pneumo 13882, OD600 vs control) was 65.1%, the OD600 ([6]; K. pneumo 13882, antibiotic 10 μg/ml, 30 min, SDS lysis buffer + vortex, 1.5 h culture) was 0.127 and the “assay score (sensitive or resistant)” value ([6]; K. pneumoniae 13882) was “sensitive”. For the same molecule, the “% diff” value ([7]; K. pneumo BAA-1705 (KPC), OD600 vs control) was 16.6%, the OD600 ([7]; K. pneumo BAA-1705 (KPC), antibiotic 10 μg/ml, 30 min, SDS lysis buffer + vortex, 1.5 h culture) was 0.423 and the “assay score (sensitive or resistant)” value ([7]; K. pneumoniae BAA-1705 (KPC)) was “resistant”. For the same molecule, the “assay score (sensitive or resistant)” value [8] was “sensitive”, the “% diff” value ([8]; OD600 vs control) was 87.3% and the OD600 ([8]; antibiotic 10 μg/ml, 30 min, SDS lysis buffer + vortex, 1.5 h culture) was 0.046.
